Test results as given in ChEMBL document CHEMBL3745645, “Synthesis, in vitro antitumor activity, dihydrofolate reductase inhibition, DNA intercalation and structure-activity relationship studies of 1,3,5-triazine analogues” (Bioorg Med Chem Lett, 2016).
Activity calls are given as the source filed them. The calls are words filed in the database; no cut-off is given here.

Legend:
Format in all cases: functional
[1] = tested on: SR; test: Cytotoxicity against human SR cells at 10 uM after 48 hrs by SRB assay
[2] = Cytotoxicity against human OVCAR3 cells at 10 uM after 48 hrs by SRB assay; settings: OVCAR-3, 48 h, read-out: GI
[3] = Cytotoxicity against human SF539 cells at 10 uM after 48 hrs by SRB assay; settings: SF-539, 48 h, read-out: GI
[4] = tested on: M14; test: Cytotoxicity against human M14 cells at 10 uM after 48 hrs by SRB assay; settings: M14, 48 h, read-out: GI
[5] = tested on: K562; test: Cytotoxicity against human K562 cells at 10 uM after 48 hrs by SRB assay
[6] = Cytotoxicity against human HOP62 cells at 10 uM after 48 hrs by SRB assay; settings: HOP-62, 48 h, read-out: GI
[7] = Cytotoxicity against human LOXIMVI cells at 10 uM after 48 hrs by SRB assay; settings: LOX IMVI, read-out: GI
[8] = Cytotoxicity against human IGROV1 cells at 10 uM after 48 hrs by SRB assay; settings: IGROV-1, 48 h, read-out: GI
[9] = Cytotoxicity against human UACC257 cells at 10 uM after 48 hrs by SRB assay; settings: UACC-257, 48 h, read-out: GI
[10] = Cytotoxicity against human UO31 cells at 10 uM after 48 hrs by SRB assay; settings: UO-31, 48 h, read-out: GI
[11] = tested on: U-251; test: Cytotoxicity against human U251 cells at 10 uM after 48 hrs by SRB assay; settings: U-251, 48 h, read-out: GI
[12] = tested on: HCT-15; test: Cytotoxicity against human HCT15 cells at 10 uM after 48 hrs by SRB assay
[13] = Cytotoxicity against human DU145 cells at 10 uM after 48 hrs by SRB assay; settings: DU-145, 48 h, read-out: GI
[14] = tested on: MOLT-4; test: Cytotoxicity against human MOLT4 cells at 10 uM after 48 hrs by SRB assay
[15] = tested on: A498; test: Cytotoxicity against human A498 cells at 10 uM after 48 hrs by SRB assay; settings: A498, 48 h, read-out: GI
[16] = tested on: MDA-MB-231; test: Cytotoxicity against human MDA-MB-231 cells at 10 uM after 48 hrs by SRB assay; settings: MDA-MB-231, 48 h, read-out: GI
[17] = tested on: OVCAR-5; test: Cytotoxicity against human OVCAR5 cells at 10 uM after 48 hrs by SRB assay
[18] = tested on: SK-MEL-28; test: Cytotoxicity against human SK-MEL-28 cells at 10 uM after 48 hrs by SRB assay
[19] = Cytotoxicity against human SKOV3 cells at 10 uM after 48 hrs by SRB assay; settings: SK-OV-3, 48 h, read-out: GI
[20] = tested on: NCI-H226; test: Cytotoxicity against human NCI-H226 cells at 10 uM after 48 hrs by SRB assay; settings: NCI-H226, 48 h, read-out: GI
[21] = tested on: Malme-3M; test: Cytotoxicity against human MALME-3M cells at 10 uM after 48 hrs by SRB assay; settings: read-out: GI
[22] = Cytotoxicity against human COLO205 cells at 10 uM after 48 hrs by SRB assay; settings: COLO 205, 48 h, read-out: GI
[23] = tested on: NCI-H322M; test: Cytotoxicity against human NCI-H322M cells at 10 uM after 48 hrs by SRB assay; settings: read-out: GI
[24] = tested on: ACHN; test: Cytotoxicity against human ACHN cells at 10 uM after 48 hrs by SRB assay; settings: read-out: GI
[25] = Cytotoxicity against human SW620 cells at 10 uM after 48 hrs by SRB assay; settings: SW-620, 48 h, read-out: GI
[26] = Cytotoxicity against human SNB75 cells at 10 uM after 48 hrs by SRB assay; settings: SNB-75, 48 h, read-out: GI
[27] = Cytotoxicity against human RXF393 cells at 10 uM after 48 hrs by SRB assay; settings: RXF 393, 48 h, read-out: GI
[28] = Cytotoxicity against human HOP92 cells at 10 uM after 48 hrs by SRB assay; settings: HOP-92, 48 h, read-out: GI
[29] = tested on: CCRF-CEM; test: Cytotoxicity against human CCRF-CEM cells at 10 uM after 48 hrs by SRB assay
[30] = Cytotoxicity against human SF295 cells at 10 uM after 48 hrs by SRB assay; settings: SF-295, 48 h, read-out: GI
[31] = Cytotoxicity against human BT549 cells at 10 uM after 48 hrs by SRB assay; settings: BT-549, 48 h, read-out: GI
[32] = Cytotoxicity against human HCT116 cells at 10 uM after 48 hrs by SRB assay; settings: HCT-116, 48 h, read-out: GI
[33] = tested on: SN12C; test: Cytotoxicity against human SN12C cells at 10 uM after 48 hrs by SRB assay; settings: read-out: GI
[34] = tested on: NCI/ADR-RES; test: Cytotoxicity against human NCI-ADR-RES cells at 10 uM after 48 hrs by SRB assay
[35] = tested on: KM12; test: Cytotoxicity against human KM12 cells at 10 uM after 48 hrs by SRB assay; settings: KM12, 48 h, read-out: GI
[36] = tested on: TK-10; test: Cytotoxicity against human TK10 cells at 10 uM after 48 hrs by SRB assay
[37] = Cytotoxicity against human HCC2998 cells at 10 uM after 48 hrs by SRB assay; settings: HCC 2998, 48 h, read-out: GI
[38] = Cytotoxicity against human OVCAR4 cells at 10 uM after 48 hrs by SRB assay; settings: OVCAR-4, 48 h, read-out: GI
[39] = tested on: SK-MEL-2; test: Cytotoxicity against human SK-MEL-2 cells at 10 uM after 48 hrs by SRB assay; settings: SK-MEL-2, 48 h, read-out: GI
[40] = tested on: MDA-MB-435; test: Cytotoxicity against human MDA-MB-435 cells at 10 uM after 48 hrs by SRB assay; settings: MDA-MB-435, 48 h, read-out: GI
[41] = tested on: Hs-578T; test: Cytotoxicity against human Hs 578T cells at 10 uM after 48 hrs by SRB assay
[42] = tested on: A549; test: Cytotoxicity against human A549 cells at 10 uM after 48 hrs by SRB assay; settings: A549, 48 h, read-out: GI
[43] = Cytotoxicity against human SNB19 cells at 10 uM after 48 hrs by SRB assay; settings: SNB-19, 48 h, read-out: GI
[44] = Cytotoxicity against human SF268 cells at 10 uM after 48 hrs by SRB assay; settings: SF-268, 48 h, read-out: GI
[45] = Cytotoxicity against human OVCAR8 cells at 10 uM after 48 hrs by SRB assay; settings: OVCAR-8, 48 h, read-out: GI
[46] = tested on: RPMI-8226; test: Cytotoxicity against human RPMI8226 cells at 10 uM after 48 hrs by SRB assay
[47] = tested on: NCI-H460; test: Cytotoxicity against human NCI-H460 cells at 10 uM after 48 hrs by SRB assay; settings: NCI-H460, 48 h, read-out: GI
[48] = Cytotoxicity against human Caki1 cells at 10 uM after 48 hrs by SRB assay; settings: CAKI-1, 48 h, read-out: GI
[49] = tested on: MCF7; test: Cytotoxicity against human MCF7 cells at 10 uM after 48 hrs by SRB assay; settings: MCF7, 48 h, read-out: GI
[50] = tested on: 786-0; test: Cytotoxicity against human 786-0 cells at 10 uM after 48 hrs by SRB assay; settings: 786-0, 48 h, read-out: GI
[51] = tested on: MDA-MB-468; test: Cytotoxicity against human MDA-MB-468 cells at 10 uM after 48 hrs by SRB assay; settings: MDA-MB-468, 48 h, read-out: GI
[52] = tested on: T47D; test: Cytotoxicity against human T47D cells at 10 uM after 48 hrs by SRB assay; settings: read-out: GI
[53] = tested on: HT-29; test: Cytotoxicity against human HT-29 cells at 10 uM after 48 hrs by SRB assay; settings: HT-29, 48 h, read-out: GI
[54] = tested on: SK-MEL-5; test: Cytotoxicity against human SK-MEL-5 cells at 10 uM after 48 hrs by SRB assay; settings: SK-MEL-5, 48 h, read-out: GI
[55] = tested on: NCI-H522; test: Cytotoxicity against human NCI-H522 cells at 10 uM after 48 hrs by SRB assay; settings: NCI-H522, 48 h, read-out: GI
[56] = tested on: HL-60(TB); test: Cytotoxicity against human HL-60(TB) cells at 10 uM after 48 hrs by SRB assay

## Cc1nc2cc(Nc3nc(NCCN)nc(Nc4ccc(F)cc4)n3)ccc2n1Cc1ccccc1
[1]
  growth inhibition (GI): Active
[2]
  inhibition of growth at 10 µM: 13.3%
[3]
  inhibition of growth at 10 µM: 3.98%
[4]
  inhibition of growth at 10 µM: 18.4%
[5]
  growth inhibition (GI): Active
[6]
  inhibition of growth at 10 µM: 20.9%
[7]
  inhibition of growth at 10 µM: 41.8%
[8]
  inhibition of growth at 10 µM: 18.6%
[9]
  inhibition of growth at 10 µM: 9.53%
[10]
  inhibition of growth at 10 µM: 10.7%
[11]
  inhibition of growth at 10 µM: 22.6%
[12]
  growth inhibition (GI): inactive
[13]
  inhibition of growth at 10 µM: 17.8%
[14]
  growth inhibition (GI): Active
[15]
  inhibition of growth at 10 µM: 32.6%
[16]
  inhibition of growth at 10 µM: 39.6%
[17]
  growth inhibition (GI): inactive
[18]
  growth inhibition (GI): inactive
[19]
  inhibition of growth at 10 µM: 4.49%
[20]
  inhibition of growth at 10 µM: 4.61%
[21]
  inhibition of growth at 10 µM: 6.46%
[22]
  inhibition of growth at 10 µM: 18%
[23]
  inhibition of growth at 10 µM: 0.32%
[24]
  inhibition of growth at 10 µM: 3.22%
[25]
  inhibition of growth at 10 µM: 26.1%
[26]
  inhibition of growth at 10 µM: 15.8%
[27]
  inhibition of growth at 10 µM: 28%
[28]
  inhibition of growth at 10 µM: 51.5%
[29]
  growth inhibition (GI): Active
[30]
  inhibition of growth at 10 µM: 20.2%
[31]
  inhibition of growth at 10 µM: 9.96%
[32]
  inhibition of growth at 10 µM: 39.7%
[33]
  inhibition of growth at 10 µM: 14.9%
[34]
  growth inhibition (GI): inactive
[35]
  inhibition of growth at 10 µM: 29.4%
[36]
  growth inhibition (GI): inactive
[37]
  inhibition of growth at 10 µM: 29.4%
[38]
  inhibition of growth at 10 µM: 23%
[39]
  inhibition of growth at 10 µM: 9.54%
[40]
  inhibition of growth at 10 µM: 19.6%
[41]
  growth inhibition (GI): inactive
[42]
  inhibition of growth at 10 µM: 16.1%
[43]
  inhibition of growth at 10 µM: 8.37%
[44]
  inhibition of growth at 10 µM: 28.2%
[45]
  inhibition of growth at 10 µM: 10.9%
[46]
  growth inhibition (GI): Active
[47]
  inhibition of growth at 10 µM: 17.4%
[48]
  inhibition of growth at 10 µM: 5.83%
[49]
  inhibition of growth at 10 µM: 31.2%
[50]
  inhibition of growth at 10 µM: 17.6%
[51]
  inhibition of growth at 10 µM: 26.8%
[52]
  inhibition of growth at 10 µM: 30.9%
[53]
  inhibition of growth at 10 µM: 64.9%
[54]
  inhibition of growth at 10 µM: 13.4%
[55]
  inhibition of growth at 10 µM: 14.1%
[56]
  growth inhibition (GI): Active
